{
  "source": "patent US20130288956A1",
  "about": "“COMBINED PHARMACEUTICAL COMPOSITION AS ANTIFUNGAL AGENT” (priority 2010, published 2013)",
  "key": {"A. fumigatus": {"tested_on": "A. fumigatus", "assay": "In vitro combination effects, checkerboard method by micro dilution (FIC index)", "type": "cell-based, Aspergillus fumigatus", "details": "A. fumigatus (16 strains)"}, "[1]": {"tested_on": "A. flavus strain IFM50915", "assay": "A. flavus respiratory tract infection model", "type": "in vivo, mice"}, "C. tropicalis": {"tested_on": "C. tropicalis", "assay": "In vitro combination effects, checkerboard method by micro dilution (FIC index)", "type": "cell-based, Candida tropicalis"}, "[2]": {"tested_on": "A. fumigatus strain IFM52108", "assay": "A. fumigatus respiratory tract infection model", "type": "in vivo, mice", "experimental": "Female DBA/2N mice (age 8 weeks, Charles River Laboratories Japan, Inc.) were subcutaneously administered 200 mg/kg of 5-fluorouracil 5 or 6 days prior to infection in order to put the mice into a compromised state.\nA. fumigatus strain IFM52108 and A. flavus strain IFM50915 were used.\nA liquid containing spores of A. fumigatus strain IFM52108 stored at −80° C. was applied to Potato Dextrose agar medium (PDA, Eiken Chemical Co., Ltd.) followed by static culturing for 5 to 7 days at 35° C. and suspending in sterile physiological saline containing 0.05% Tween 80.\nThe number of spores was counted using a hemocytometer, and the liquid was diluted with sterile physiological saline containing 0.05% Tween 80 to a concentration of 1.2×10^6 cells/mL to 2.5×10^6 cells/mL to obtain an inoculation fungus liquid.\n50 μl of inoculation fungus liquid were inoculated into the nasal cavities of 9-week-old mice at 0.3×10^5 cells/mouse to 1.25×10^5 cells/mouse under Ketalar anesthesia.\n0.1 mL to 0.2 mL of each drug solution (dissolved in sterile physiological saline or 5% glucose solution, or dissolved in sterile physiological saline or 5% glucose solution containing 6.5% dimethylsulfoxide and 3.5% Tween 80) was administered to the individual and combination dose groups either into the peritoneal cavity or into the stomach using a gastric cannula corresponding to the administration route of the drug for 3 to 4 days at the rate of 1 to 2 times per day starting 0.5 hours to 1 hour after inoculation of fungus.\nThere were 5 to 9 animals in each group.\nInfection protection results were assessed on survival rate 14 days after infection."}, "C. albicans": {"tested_on": "C. albicans", "assay": "In vitro combination effects, checkerboard method by micro dilution (FIC index)", "type": "cell-based, Candida albicans"}, "C. glabrata": {"tested_on": "C. glabrata", "assay": "In vitro combination effects, checkerboard method by micro dilution (FIC index)", "type": "cell-based, Candida glabrata", "details": "C. glabrata (5 strains); combination use with Test Compound 1"}, "A. flavus": {"tested_on": "A. flavus", "assay": "In vitro combination effects, checkerboard method by micro dilution (FIC index)", "type": "cell-based, Aspergillus flavus", "details": "A. flavus (4 strains), Table 2"}, "[3]": {"details": "C. tropicalis (5 strains), combination use with Test Compound 1"}, "[4]": {"details": "C. albicans (9 strains), combination use with Test Compound 1"}},
  "data": [
    {"smiles": "C[C@@H](c1nc(-c2ccc(C#N)cc2)cs1)[C@](O)(Cn1cncn1)c1ccc(F)cc1F", "note": "[Ravuconazole, ravuconazole]", "values": [
      {"measurement": "Ratio indicating Additive effect of combination use with Test Compound 1", "setting": "A. fumigatus", "value": 6, "unit": "%"},
      {"measurement": "Ratio indicating Antagonistic effect of combination use with Test Compound 1", "setting": "A. fumigatus", "value": 0, "unit": "%"},
      {"measurement": "Ratio indicating Indifferent effect of combination use with Test Compound 1", "setting": "A. fumigatus", "value": 94, "unit": "%"},
      {"measurement": "Ratio indicating Synergistic effect of combination use with Test Compound 1", "setting": "A. fumigatus", "value": 0, "unit": "%"},
      {"measurement": "14-day survival rate", "setting": "[1]; RVCZ 2.5 mg/kg", "value": 40, "unit": "%"},
      {"measurement": "14-day survival rate", "setting": "[1]; RVCZ 5 mg/kg", "value": 80, "unit": "%"},
      {"measurement": "Ratio indicating Additive effect of combination use with Test Compound 1", "setting": "C. tropicalis; [3]", "value": 0, "unit": "%"},
      {"measurement": "Ratio indicating Antagonistic effect of combination use with Test Compound 1", "setting": "C. tropicalis; [3]", "value": 0, "unit": "%"},
      {"measurement": "Ratio indicating Indifferent effect of combination use with Test Compound 1", "setting": "C. tropicalis; [3]", "value": 0, "unit": "%"},
      {"measurement": "Ratio indicating Synergistic effect of combination use with Test Compound 1", "setting": "C. tropicalis; [3]", "value": 100, "unit": "%"},
      {"measurement": "Effect of combination use with Test Compound 1 (FIC index evaluation)", "setting": "C. tropicalis; Candida tropicalis strains E83037, E83038, E83039, E83040 and E83041, resistant to azole antifungal agents", "value": "synergistic (A combination FIC index of 0.5 or less was evaluated as indicating synergistic action)"},
      {"measurement": "14-day survival rate", "setting": "[2]; RVCZ 5 mg/kg", "value": 0, "unit": "%"},
      {"measurement": "14-day survival rate", "setting": "[2]; RVCZ 10 mg/kg", "value": 40, "unit": "%"},
      {"measurement": "Combination effects in mouse Aspergillus fumigatus infection model", "setting": "[2]; combination with the test compound of the invention", "value": "synergistic combination effects"},
      {"measurement": "Ratio indicating Additive effect of combination use with Test Compound 1", "setting": "C. albicans; [4]", "value": 56, "unit": "%"},
      {"measurement": "Ratio indicating Antagonistic effect of combination use with Test Compound 1", "setting": "C. albicans; [4]", "value": 0, "unit": "%"},
      {"measurement": "Ratio indicating Indifferent effect of combination use with Test Compound 1", "setting": "C. albicans; [4]", "value": 0, "unit": "%"},
      {"measurement": "Ratio indicating Synergistic effect of combination use with Test Compound 1", "setting": "C. albicans; [4]", "value": 44, "unit": "%"},
      {"measurement": "Effect of combination use with Test Compound 1 (FIC index evaluation)", "setting": "C. albicans; Candida albicans IFM49738, resistant to azole antifungal agents", "value": "synergistic (A combination FIC index of 0.5 or less was evaluated as indicating synergistic action)"},
      {"measurement": "Ratio indicating Additive effect of combination use with Test Compound 1", "setting": "C. glabrata", "value": 60, "unit": "%"},
      {"measurement": "Ratio indicating Antagonistic effect of combination use with Test Compound 1", "setting": "C. glabrata", "value": 0, "unit": "%"},
      {"measurement": "Ratio indicating Indifferent effect of combination use with Test Compound 1", "setting": "C. glabrata", "value": 0, "unit": "%"},
      {"measurement": "Ratio indicating Synergistic effect of combination use with Test Compound 1", "setting": "C. glabrata", "value": 40, "unit": "%"},
      {"measurement": "Ratio indicating Additive effect of combination use with Test Compound 1", "setting": "A. flavus", "value": 25, "unit": "%"},
      {"measurement": "Ratio indicating Antagonistic effect of combination use with Test Compound 1", "setting": "A. flavus", "value": 0, "unit": "%"},
      {"measurement": "Ratio indicating Indifferent effect of combination use with Test Compound 1", "setting": "A. flavus", "value": 75, "unit": "%"},
      {"measurement": "Ratio indicating Synergistic effect of combination use with Test Compound 1", "setting": "A. flavus", "value": 0, "unit": "%"}
    ]}
  ]
}
